Experimental data published in the supplement of paper PMC10307832.

Assays:
Test in all cases: relative viability (nuclei count vs DMSO), 5 days (fraction); higher = more cells survive
Olaparib + Tozasertib = compound: O=C(c1cc(Cc2n[nH]c(=O)c3ccccc23)ccc1F)N1CCN(C(=O)C2CC2)CC1 [Olaparib] + Cc1cc(Nc2cc(N3CCN(C)CC3)nc(Sc3ccc(NC(=O)C4CC4)cc3)n2)n[nH]1 [Tozasertib] (partner 0.1 µM)
In short: (§1)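 One day after seeding in 1536-well plates, lung cancer cell lines were dosed by pin tool. Dosing was either single-drug or a fixed anchor-drug dose plus five library-drug doses (not always all listed) in √10 steps. After 5 days, nuclei were stained in one fix-and-stain step and counted on 4× images, and relative viability is the nuclei count of treated wells over that of vehicle wells, given as the median of duplicate plates.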

Carfilzomib + Olaparib = compound: CC(C)C[C@H](NC(=O)[C@H](CCc1ccccc1)NC(=O)CN1CCOCC1)C(=O)N[C@@H](Cc1ccccc1)C(=O)N[C@@H](CC(C)C)C(=O)[C@@]1(C)CO1 [Carfilzomib] + O=C(c1cc(Cc2n[nH]c(=O)c3ccccc23)ccc1F)N1CCN(C(=O)C2CC2)CC1 [Olaparib] (partner 8 µM)
In short: as §1

Carfilzomib + Linsitinib = compound: CC(C)C[C@H](NC(=O)[C@H](CCc1ccccc1)NC(=O)CN1CCOCC1)C(=O)N[C@@H](Cc1ccccc1)C(=O)N[C@@H](CC(C)C)C(=O)[C@@]1(C)CO1 [Carfilzomib] + C[C@]1(O)C[C@@H](c2nc(-c3ccc4ccc(-c5ccccc5)nc4c3)c3c(N)nccn32)C1 [Linsitinib] (partner 1 µM)
In short: as §1

Carfilzomib + OSI-027 = compound: CC(C)C[C@H](NC(=O)[C@H](CCc1ccccc1)NC(=O)CN1CCOCC1)C(=O)N[C@@H](Cc1ccccc1)C(=O)N[C@@H](CC(C)C)C(=O)[C@@]1(C)CO1 [Carfilzomib] + COc1cccc2cc(-c3nc([C@H]4CC[C@H](C(=O)O)CC4)n4ncnc(N)c34)[nH]c12 [OSI-027] (partner 0.5 µM)
In short: as §1

| Cell Line | relative viability (Olaparib + Tozasertib; first compound 0.08 µM) | relative viability (Olaparib + Tozasertib; first compound 0.253 µM) | relative viability (Olaparib + Tozasertib; first compound 2.53 µM) | relative viability (Olaparib + Tozasertib; first compound 8 µM) | relative viability (Carfilzomib + Olaparib; first compound 0.001 µM) | relative viability (Carfilzomib + Olaparib; first compound 0.003162 µM) | relative viability (Carfilzomib + Olaparib; first compound 0.01 µM) | relative viability (Carfilzomib + Olaparib; first compound 0.03162 µM) | relative viability (Carfilzomib + Olaparib; first compound 0.1 µM) | relative viability (Carfilzomib + Linsitinib; first compound 0.001 µM) | relative viability (Carfilzomib + Linsitinib; first compound 0.003162 µM) | relative viability (Carfilzomib + Linsitinib; first compound 0.01 µM) | relative viability (Carfilzomib + Linsitinib; first compound 0.03162 µM) | relative viability (Carfilzomib + Linsitinib; first compound 0.1 µM) | relative viability (Carfilzomib + OSI-027; first compound 0.001 µM) | relative viability (Carfilzomib + OSI-027; first compound 0.003162 µM) | relative viability (Carfilzomib + OSI-027; first compound 0.01 µM) | relative viability (Carfilzomib + OSI-027; first compound 0.03162 µM) | relative viability (Carfilzomib + OSI-027; first compound 0.1 µM) |
| --- | --- | --- | --- | --- | --- | --- | --- | --- | --- | --- | --- | --- | --- | --- | --- | --- | --- | --- | --- |
| LU99A | 0.299 | 0.292 | 0.261 | 0.22 | 0.287 | 0.233 | 0.276 | 0.168 | 0.137 | 0.547 | 0.514 | 0.508 | 0.225 | 0.159 | 0.293 | 0.309 | 0.317 | 0.275 | 0.192 |
| LXF-289 | 0.232 | 0.146 | 0.159 | 0.156 | 1.09 | 1.19 | 1.07 | 0.0687 | 0.0894 | 1 | 1.03 | 0.982 | 0.097 | 0.083 | 0.818 | 0.9 | 0.749 | 0.163 | 0.0509 |
| NCI-H23 | 0.391 | 0.335 | 0.397 | 0.232 | 0.365 | 0.391 | 0.287 | 0.0921 | 0.101 | 0.537 | 0.708 | 0.567 | 0.206 | 0.12 | 0.592 | 0.887 | 0.716 | 0.145 | 0.144 |
| NCI-H322M | 0.484 | 0.471 | 0.473 | 0.434 | 0.748 | 0.681 | 0.771 | 0.798 | 0.439 | 0.806 | 0.929 | 0.913 | 0.99 | 0.489 | 0.592 | 0.624 | 0.606 | 0.462 | 0.332 |
| NCI-H358 | 0.101 | 0.119 | 0.106 | 0.116 | 0.639 | 0.692 | 0.583 | 0.0792 | 0.0776 | 0.793 | 0.977 | 0.717 | 0.15 | 0.16 | 0.638 | 0.834 | 0.888 | 0.0702 | 0.0685 |
| NCI-H441 | 0.602 | 0.561 | 0.639 | 0.541 | 0.749 | 0.542 | 0.288 | 0.146 | 0.15 | 0.569 | 0.451 | 0.233 | 0.104 | 0.115 | 0.649 | 0.588 | 0.295 | 0.153 | 0.16 |
| NCI-H460 | 0.485 | 0.415 | 0.356 | 0.184 | 0.41 | 0.444 | 0.485 | 0.443 | 0.0304 | 0.759 | 0.891 | 0.719 | 0.0155 | 0.0133 | 0.647 | 0.678 | 0.697 | 0.287 | 0.022 |
